Assay [1] addresses MMP-12 (Homo sapiens, UniProt P39900). Put plainly: In vitro inhibition of proteolysis of fluorogenic peptide substrate FP-1 by MMP-12. As to conditions: substrate FP-1 10 μM, 20 minutes at ambient temperature, compounds tested 0.3 to 30 μM. The assay is classed as biochemical. On the procedure: (§1) The inhibitory activity of the compounds of formula (I) with regard to metalloproteinase-12 is evaluated by testing the ability of the compounds of the invention to inhibit the proteolysis of a peptide substrate by MMP-12.
(§2) The inhibitory activity of a compound of formula (I) is expressed as IC50 value, which represents the concentration of inhibitor at which a degree of inhibition of the metalloproteinase of 50% is observed.
(§3) The reaction begins with the sequential addition of 41 μl of substrate FP-1 (final concentration of 10 μM) to a buffer solution of 50 mM of Tris-HCl and 10 mM of CaCl2, which comprises 5 mM of hydroxamic acid and 5 μl of the enzyme diluted in a 0.005% Brij-35 buffer solution. The microplates are incubated for 20 minutes at ambient temperature. The compounds of the invention are tested at concentrations varying from 0.3 to 30 μM.
(§4) The measurement of the amount of proteolysis of the peptide substrate is monitored by a measurement of absorbance at 405 nm using a microplate spectrophotometer, at ambient temperature. The IC50 values are calculated from curves in which the percentage of the catalytic activity relative to the control is represented on the […] and the concentration of inhibitor is represented on the Y axis.

Assay [2] addresses MMP-13 (Homo sapiens, UniProt P45452). In words: MMP-12 test adapted to MMP-13. In kind it is biochemical. On the procedure:
as §1, §2, §3, §4
The test described above for the inhibition of MMP-12 is adapted and used to determine the ability of the compounds of formula (I) to inhibit the metalloproteinases MMP-1, MMP-2, MMP-3, MMP-7, MMP-9, MMP-13 and MMP-14. […] More specifically, the compounds of the present invention generally show a selectivity with a factor of greater than 50 with respect to the metalloproteinases mentioned above, except towards MMP-13. Thus, the compounds of the present invention also show an inhibitory activity with regard to MMP-13, making it possible to also use the pharmaceutical compositions comprising one or more compounds of the invention in the treatment of pathologies related to activity of MMP-13. Mention may be made, among these pathologies, by way of indication and without implied limitation, of cancer, osetoporosis, osteoarthritis, arthritis, rheumatoid arthritis, atherosclerosis, multiple sclerosis, cardiac insufficiency, asthma and chronic obstructive pulmonary disease.

Drawing on patent US20040072871A1, “Novel thiophene derivatives, their process of preparation and the pharmaceutical compositions which comprise them” (priority 2002, published 2004), this text covers IC50 for 14 molecules.

Sequence of MMP-12 (P39900 106-470): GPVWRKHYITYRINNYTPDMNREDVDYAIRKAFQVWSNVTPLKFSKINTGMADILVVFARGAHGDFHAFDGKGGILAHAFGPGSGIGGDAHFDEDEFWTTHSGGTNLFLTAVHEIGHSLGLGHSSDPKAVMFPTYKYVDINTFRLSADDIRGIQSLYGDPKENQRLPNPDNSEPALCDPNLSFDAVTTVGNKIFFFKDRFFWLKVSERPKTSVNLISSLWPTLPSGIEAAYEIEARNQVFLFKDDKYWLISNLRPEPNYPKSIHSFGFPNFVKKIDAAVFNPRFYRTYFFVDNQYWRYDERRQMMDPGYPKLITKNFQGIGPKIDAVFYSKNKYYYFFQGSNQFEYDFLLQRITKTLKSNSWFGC

Take `O=C(O)CC[C@@H]1CCC[C@@H](NC(=O)c2cc(-c3ccc(OC(F)(F)F)cc3)cs2)C1` (relative stereo) [Example 125, trans-3-(3-{[4-(4-Trifluoromethoxyphenyl)thien-2-yl]-carboxamido}cyclohexyl)propanoic acid]: the IC50 (as a rule, the point on the concentration scale where inhibition reaches its midpoint) came out at 0.32 µM in assay [1] and 3.95 µM in assay [2].

For `O=C(NCCN1CCOCC1)c1cc(-c2ccc(-c3ccccc3)cc2)cs1` [Example 2, 4-(4-Biphenyl)-N-(2-morpholin-4-ylethyl)thiophene-2carboxamide], the IC50 in assay [1] came out at 0.35 µM; in assay [2], 30 µM.

Take `O=C(NC1CCCCC1CO)c1cc(-c2ccc(OC(F)(F)F)cc2)cs1` (centres unmarked) [Example 121, N-[2-(Hydroxymethyl)cyclohexyl]-4-(4-trifluoromethoxyphenyl)-thiophene-2-carboxamide]: in assay [1], the midpoint of inhibition, the IC50, lay at 0.72 µM.

Turning to `O=C(NCCN1CCOCC1)c1cc(-c2ccc(-c3ccccc3F)cc2)cs1` [Example 120, 4-[4-(2-Fluorophenyl)phenyl]-N-(2-morpholin-4-ylethyl)thiophene-2-carboxamide], the IC50 was found to be 0.66 µM in assay [1] and 6.1 µM in assay [2].

On to `CC(=O)c1ccc(-c2ccc(-c3csc(C(=O)NC[C@H]4CC[C@H](C(=O)O)CC4)c3)cc2)cc1` [Example 123, trans-4-[({4-[4-(4-Acetylphenyl)phenyl]thien-2-yl}carboxamido)-methyl]cyclohexanecarboxylic acid], for which the values for the IC50 in assay [1] and in assay [2] were 0.018 µM and 0.031 µM, respectively.

With `O=C(O)c1ccc(CNC(=O)c2cc(-c3ccc(OC(F)(F)F)cc3)cs2)nc1` [Example 45, 6-({[4-(4-Trifluoromethoxyphenyl)thien-2-yl]carboxamido}-methyl)nicotinic acid], the half-inhibitory concentration (IC50) in assay [1] turned out to be 0.92 µM; in assay [2], 2.85 µM.

For `CC(=O)c1ccc(-c2ccc(-c3csc(C(=O)NCc4ccc(CC(=O)O)cc4)c3)cc2)c(O)c1` [Example 117, 2-{4-[({4-[4-(4-Acetyl-2-hydroxyphenyl)phenyl]thien-2-yl}-carboxamido)methyl]phenyl}acetic acid], the IC50 was determined as 0.16 µM in assay [1] and 0.31 µM in assay [2].

In the case of `O=C(O)CC1CCC(CNC(=O)c2cc(-c3ccc(OC(F)(F)F)cc3)cs2)CC1` (centres unmarked) [Example 131, [4-({[4-(4-Trifluoromethoxyphenyl)thien-2-yl]carboxamido}methyl)-cyclohexyl]acetic acid], the IC50 in assay [1] turned out to be 0.425 µM; in assay [2], 3.3 µM.

On to “2-[4-({[4-(4′-Benzoyl-4-biphenyl)thien-2-yl]carboxamido}-methyl)phenyl]acetic acid [Example 107]”, for which inhibition in assay [1] was half-maximal at 0.05 µM (IC50). In other words, the double-digit nanomolar range.

Turning to `O=C(O)Cc1ccc(CNC(=O)c2cc(-c3ccc(Oc4ccccc4)cc3)cs2)cc1` [Example 81, 2-[4-({[4-(4-Phenoxyphenyl)thien-2-yl]carboxamido}methyl)phenyl]-acetic acid], the IC50 in assay [1] amounted to 0.5 µM; in assay [2] it was 3.7 µM.

In the case of `Cn1ccc(-c2ccc(-c3csc(C(=O)NCCN4CCOCC4)c3)cc2)n1` [Example 22, 4-[4-(1-Methyl-1H-pyrazol-3-yl)phenyl]-N-(2-morpholin-4-ylethyl)thiophene-2-carboxamide], the IC50 in assay [1] came out at 0.915 µM; in assay [2] it was 11.6 µM.

Regarding `O=C(O)Cc1ccc(CNC(=O)c2cc(-c3ccc(-c4ccc(C(=O)C5CC5)cc4)cc3)cs2)cc1` [Example 105, 2-[4-({[4-(4′-Cyclopropylcarbonyl-4-biphenyl)thien-2-yl]-carboxamido}methyl)phenyl]acetic acid], the IC50 in assay [1] is 0.05 µM.

Turning to `CC(=O)c1ccc(-c2ccc(-c3csc(C(=O)NCc4ccc(CC(=O)O)cc4)c3)cc2)cc1O` [Example 113], the IC50 in assay [1] amounted to 0.14 µM. This IC50 is about 2.8-fold higher than that of the molecule before.

As to `CCC(=O)c1ccc(-c2ccc(-c3csc(C(=O)NCc4ccc(CC(=O)O)cc4)c3)cc2)cc1` [Example 103, 2-[4-({[4-(4′-Propionyl-4-biphenyl)thien-2-yl]carboxamido}-methyl)phenyl]acetic acid], inhibition in assay [1] was half-maximal at 0.05 µM (IC50). Compared with the last molecule, the IC50 is about 2.8-fold lower.
